Series [1] addresses T1, rat VPAC1 receptor (Rattus norvegicus, UniProt P30083).
T1 construct: expressed in transfected cells; host or cells: CHO-PO (transient, Lipofectamine)
T1 sequence (P30083 31-459): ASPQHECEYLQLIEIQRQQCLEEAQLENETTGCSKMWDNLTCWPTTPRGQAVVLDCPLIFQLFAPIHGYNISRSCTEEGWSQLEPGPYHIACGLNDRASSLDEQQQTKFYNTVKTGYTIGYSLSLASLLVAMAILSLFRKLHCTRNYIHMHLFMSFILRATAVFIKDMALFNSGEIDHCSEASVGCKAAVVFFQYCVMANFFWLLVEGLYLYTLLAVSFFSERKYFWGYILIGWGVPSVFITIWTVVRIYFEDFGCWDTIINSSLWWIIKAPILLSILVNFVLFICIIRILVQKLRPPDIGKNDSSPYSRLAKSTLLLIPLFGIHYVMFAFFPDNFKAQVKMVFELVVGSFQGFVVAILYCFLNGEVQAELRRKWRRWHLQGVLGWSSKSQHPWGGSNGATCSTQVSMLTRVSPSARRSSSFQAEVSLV
The series can be described thus: DiscoveRx cAMP assay, in vitro potency at rat VPAC1 receptor. The format is cell-based. As to conditions: CHO-PO cells transiently transfected with rat VPAC1; cAMP generation; mean of two independent runs. Here is the method: DiscoveRx: CHO-PO cells are transiently transfected with rat VPAC1 or VPAC2 receptor DNA using commercially available transfection reagents (Lipofectamine from Invitrogen). The cells are seeded at a density of 10,000/well in a 96-well plate and are allowed to grow for 3 days in […] culture medium. At day 3, the assay is performed.
On the day of the experiment, the medium is removed. Also, the cells are washed twice. The cells are incubated in assay buffer plus IBMX for 15 minutes at room temperature. Afterwards, the stimuli are added and are dissolved in assay buffer. The stimuli are present for 30 minutes. Then, the assay buffer is gently removed. The cell lysis reagent of the DiscoveRx cAMP kit is added. Thereafter, the standard protocol for developing the cAMP signal as described by the manufacturer is used (DiscoveRx Inc., USA). EC50 values for cAMP generation are calculated from the raw signal or are based on absolute cAMP levels as determined by a standard curve performed on each plate.
Results for each agonist are the mean of two independent runs. Rat VPAC1 and VPAC2 results are only generated using the DiscoveRx assay.
In general terms: Changes in cAMP serve as a functional read-out for many G protein-coupled receptors.

Series [2] concerns the target T2, human VPAC2 (Homo sapiens, UniProt P41587).
T2 construct: expressed in transfected cells
T2 sequence (P41587 24-438): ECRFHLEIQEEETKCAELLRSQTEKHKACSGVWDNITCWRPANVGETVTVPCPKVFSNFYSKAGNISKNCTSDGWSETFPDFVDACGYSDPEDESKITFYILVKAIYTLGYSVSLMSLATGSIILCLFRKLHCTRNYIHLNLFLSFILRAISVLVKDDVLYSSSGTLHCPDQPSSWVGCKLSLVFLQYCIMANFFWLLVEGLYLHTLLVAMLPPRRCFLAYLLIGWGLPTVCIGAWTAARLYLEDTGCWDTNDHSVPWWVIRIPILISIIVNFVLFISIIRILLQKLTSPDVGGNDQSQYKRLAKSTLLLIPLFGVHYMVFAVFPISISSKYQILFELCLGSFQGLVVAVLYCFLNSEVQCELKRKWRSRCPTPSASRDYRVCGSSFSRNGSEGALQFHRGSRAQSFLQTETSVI
The series can be described thus: Alpha screen cAMP assay, in vitro potency at human VPAC2 receptor. The format is cell-based. As to conditions: cAMP generation; single result from two analyses in a single run, some values average of more than one experiment.

For series [3], the target named is T3, human VPAC1 (Homo sapiens, UniProt P32241).
T3 construct: expressed in transfected cells
T3 sequence (P32241 31-457): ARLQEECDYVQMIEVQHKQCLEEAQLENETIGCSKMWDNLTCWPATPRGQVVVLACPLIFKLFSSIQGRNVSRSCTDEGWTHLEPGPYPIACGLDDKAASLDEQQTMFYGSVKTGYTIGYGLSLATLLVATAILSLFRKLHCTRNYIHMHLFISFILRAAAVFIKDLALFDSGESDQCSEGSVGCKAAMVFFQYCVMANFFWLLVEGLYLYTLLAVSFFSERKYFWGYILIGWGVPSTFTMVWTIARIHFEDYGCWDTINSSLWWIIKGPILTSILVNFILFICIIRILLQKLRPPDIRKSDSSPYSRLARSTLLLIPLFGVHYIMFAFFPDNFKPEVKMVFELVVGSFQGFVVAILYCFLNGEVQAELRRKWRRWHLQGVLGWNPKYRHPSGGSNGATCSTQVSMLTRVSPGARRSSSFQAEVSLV
Kind of series: Filter binding assay, 125I-labeled VIP tracer, VPAC1 membranes. As to conditions: read-out: Human VPAC1 Receptor Binding (IC50; nM).
Experimental: (§1) For this assay, the solutions and equipment include:
(§2) Presoak solution: 0.5% Polyethyleneamine in Aqua dest
(§3) Buffer for flushing filter plates: 25 mM HEPES pH 7.4
(§4) Blocking buffer: 25 mM HEPES pH 7.4; 0.2% protease free BSA
(§5) Assay buffer: 25 mM HEPES pH 7.4; 0.5% protease free BSA
(§6) Dilution and assay plate: PS-Microplate, U form
(§7) Filtration Plate: Multiscreen FB Opaque Plate; 1.0 μM Type B Glasfiber filter
(§8) In order to prepare the filter plates, the presoak solution is aspirated by vacuum filtration. The plates are flushed twice with 200 μL flush buffer. 200 μL blocking buffer is added to the filter plate. The filter plate is then incubated with 200 μL presoak solution for 1 hour at room temperature.
(§9) The assay plate is filled with 25 μL assay buffer, 25 μL membranes (2.5 μg) suspended in assay buffer, 25 μL compound (agonist) in assay buffer, and 25 μL tracer (about 40000 cpm) in assay buffer. The filled plate is incubated for 1 hour with shaking.
(§10) The transfer from assay plate to filter plate is conducted. The blocking buffer is aspirated by vacuum filtration and washed two times with flush buffer. 90 μL is transferred from the assay plate to the filter plate. The 90 μL transferred from assay plate is aspirated and washed three times with 200 μL flush buffer. The plastic support is removed. It is dried for 1 hour at 60° C. 30 μL Microscint is added. The count is performed.

Series [4] has as its target T4, rat VPAC2 receptor (Rattus norvegicus, UniProt P35000).
T4 construct: expressed in transfected cells; host or cells: CHO-PO (transient, Lipofectamine)
T4 sequence (P35000 23-437): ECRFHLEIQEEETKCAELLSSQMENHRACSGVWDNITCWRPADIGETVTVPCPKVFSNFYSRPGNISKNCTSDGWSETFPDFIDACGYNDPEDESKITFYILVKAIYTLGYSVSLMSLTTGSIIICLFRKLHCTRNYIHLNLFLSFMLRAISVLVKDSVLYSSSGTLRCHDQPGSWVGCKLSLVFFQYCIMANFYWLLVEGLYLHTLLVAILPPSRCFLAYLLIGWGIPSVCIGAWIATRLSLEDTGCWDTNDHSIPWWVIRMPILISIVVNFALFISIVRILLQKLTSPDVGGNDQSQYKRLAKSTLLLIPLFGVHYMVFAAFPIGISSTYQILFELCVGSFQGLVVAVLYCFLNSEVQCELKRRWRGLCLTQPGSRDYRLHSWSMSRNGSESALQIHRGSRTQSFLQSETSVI
The series can be described thus: DiscoveRx cAMP assay, in vitro potency at rat VPAC2 receptor. The format is cell-based. To be noted: CHO-PO cells transiently transfected with rat VPAC2; cAMP generation; mean of two independent runs.

Series [5] has as its target T2, human VPAC2. The series can be described thus: Filter binding assay, 125I-labeled VIP tracer, VPAC2 membranes. To be noted: read-out: Human VPAC2 Receptor Binding (IC50; nM).
Experimental: as §1, §2, §3, §4, §5, §6, §7, §8, §9, §10
A short description of series [6]: Rat serum stability (activity remaining, CHO-VPAC2 DiscoveRx read-out). It is filed as in vitro ADME. The gist of the method: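 Peptides preincubated overnight in rat serum at 37 °C without aprotinin versus 4 °C with aprotinin, then tested as 11-point 5× dilutions in duplicate on CHO-VPAC2 cells, 30 min at RT. cAMP measured by DiscoveRx kit against standards; EC50 derived for each aliquot.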

The target of series [7] is T5, human VPAC1 receptor (human, UniProt P32241 31-457).
T5 sequence (looked up): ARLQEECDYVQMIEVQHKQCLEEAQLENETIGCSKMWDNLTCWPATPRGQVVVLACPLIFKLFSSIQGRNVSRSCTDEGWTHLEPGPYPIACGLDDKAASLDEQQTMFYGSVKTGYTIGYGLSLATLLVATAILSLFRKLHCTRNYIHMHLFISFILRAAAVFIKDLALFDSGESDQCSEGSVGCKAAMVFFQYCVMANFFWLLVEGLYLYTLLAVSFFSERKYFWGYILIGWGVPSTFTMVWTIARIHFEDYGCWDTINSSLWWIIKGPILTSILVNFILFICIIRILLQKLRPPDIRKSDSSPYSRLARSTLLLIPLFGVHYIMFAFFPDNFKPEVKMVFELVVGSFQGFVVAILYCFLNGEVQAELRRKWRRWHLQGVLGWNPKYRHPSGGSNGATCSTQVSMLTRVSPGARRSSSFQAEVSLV
The series can be described thus: cell-based or functional assay.

The target in series [8] is T6, human VPAC2 receptor (human, UniProt P41587 24-438).
T6 sequence (looked up): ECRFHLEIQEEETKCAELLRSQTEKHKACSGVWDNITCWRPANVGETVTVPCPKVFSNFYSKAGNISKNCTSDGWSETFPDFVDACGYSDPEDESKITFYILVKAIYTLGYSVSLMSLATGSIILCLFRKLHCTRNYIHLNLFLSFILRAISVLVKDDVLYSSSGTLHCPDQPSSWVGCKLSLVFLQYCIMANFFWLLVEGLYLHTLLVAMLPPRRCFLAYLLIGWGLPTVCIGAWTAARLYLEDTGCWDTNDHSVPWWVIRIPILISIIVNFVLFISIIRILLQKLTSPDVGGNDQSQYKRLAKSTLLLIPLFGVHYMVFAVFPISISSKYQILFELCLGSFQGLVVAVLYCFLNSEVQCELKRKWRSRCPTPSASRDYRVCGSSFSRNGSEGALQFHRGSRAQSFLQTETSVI
Kind of series: cell-based or functional assay.

Square brackets hold non-standard residues; d marks the D form. Peptide text beside a SMILES is read from it. * marks the point of attachment. Orn = NCCC[C@H](N)C(=O)O; Hexanoyl = CCCCCC(=O)*; Aib = CC(C)(N)C(=O)O

As for `CCCCCC(=O)N[C@@H](Cc1c[nH]cn1)C(=O)N[C@@H](CO)C(=O)N[C@@H](CC(=O)O)C(=O)N[C@@H](C)C(=O)N[C@H](C(=O)N[C@@H](Cc1ccccc1)C(=O)N[C@H](C(=O)N[C@@H](CCC(=O)O)C(=O)N[C@@H](CCC(N)=O)C(=O)N[C@@H](Cc1ccc(OC)cc1)C(=O)N[C@H](C(=O)N[C@@H](CCCN)C(=O)N[C@@H](CC(C)C)C(=O)N[C@@H](CCCNC(=N)N)C(=O)NC(C)(C)C(=O)N[C@@H](CCC(N)=O)C(=O)N[C@H](C(=O)N[C@@H](C)C(=O)N[C@@H](C)C(=O)NC(C)(C)C(=O)N[C@@H](CCCN)C(=O)N[C@@H](Cc1ccc(O)cc1)C(=O)N[C@@H](CC(C)C)C(=O)N[C@@H](CCC(N)=O)C(=O)N[C@@H](CO)C(=O)N[C@H](C(=O)N[C@@H](CCCN)C(=O)N[C@@H](CCCN)C(=O)NCC(=O)NCC(=O)N1CCC[C@H]1C(=O)N[C@@H](CO)C(=O)N[C@@H](CO)C(=O)NCC(=O)N[C@@H](C)C(=O)N1CCC[C@H]1C(=O)N1CCC[C@H]1C(=O)N1CCC[C@H]1C(=O)N[C@@H](CO)C(N)=O)[C@@H](C)CC)C(C)C)[C@@H](C)O)[C@@H](C)O)C(C)C` [Agonist P488] (Hexanoyl-HSDAVFTEQY(Me)T[Orn]LR[Aib]QVAA[Aib][Orn]YLQSI[Orn][Orn]GGPSSGAPPPS-NH2), the values for the half-maximal effective concentration (EC50) in series [1], in series [2] and in series [4] were 1.66 nM, 0.19 nM and 0.09 nM, respectively. Besides, the 50% inhibitory concentration (IC50) in series [3] was more than 1000 nM; in series [5] it was 0.64 nM. Further, in series [6], the “Rat Serum Stability (estimated purity in % after overnight incub.)” value is recorded as 193.17%.

Turning to HSDAVFTDNYTRLRKQVAAKKYLQSIKNKRQGGPSSGAPPPS [VPAC2 receptor peptide agonist P29], in series [7], the “Human VPAC1 Receptor: DiscoveRx (EC50; nM), cAMP generation” value came to 18.3 nM. Also, in series [8], the “Human VPAC2 Receptor: DiscoveRx (EC50; nM), cAMP generation” value was found to be 3.02 nM.

In general, EC50 refers to the concentration at which the effect is half-maximal. A higher EC50 goes with a need for much substance. For orientation: IC50 means the concentration that gives 50% inhibition.

The values are drawn from patent US20080194482A1, “Selective Apac2 Receptor Peptide Agonists” (priority 2005, published 2008).
